Assay results reported in US20250129092A1, “COMPOUNDS USEFUL IN MODULATION OF AHR SIGNALLING” (JAGUAHR THERAPEUTICS PTE LTD, priority 2021, published 2025).

Key:
AhR [1] = target: T1, AhR (Homo sapiens, UniProt P35869); test: AhR antagonism in human PBMCs - inhibition of IL-22 release; type: cell-based; parameters: endogenous in cells; details: human PBMCs activated with CD3/CD28 agonist mixture, 72 hrs, IL-22 ELISA; average; read-out: hPBMC Inhibition of CD3/CD28 induced IL-22 release: av. pIC50 (converted)
T1 sequence (P35869 11-848): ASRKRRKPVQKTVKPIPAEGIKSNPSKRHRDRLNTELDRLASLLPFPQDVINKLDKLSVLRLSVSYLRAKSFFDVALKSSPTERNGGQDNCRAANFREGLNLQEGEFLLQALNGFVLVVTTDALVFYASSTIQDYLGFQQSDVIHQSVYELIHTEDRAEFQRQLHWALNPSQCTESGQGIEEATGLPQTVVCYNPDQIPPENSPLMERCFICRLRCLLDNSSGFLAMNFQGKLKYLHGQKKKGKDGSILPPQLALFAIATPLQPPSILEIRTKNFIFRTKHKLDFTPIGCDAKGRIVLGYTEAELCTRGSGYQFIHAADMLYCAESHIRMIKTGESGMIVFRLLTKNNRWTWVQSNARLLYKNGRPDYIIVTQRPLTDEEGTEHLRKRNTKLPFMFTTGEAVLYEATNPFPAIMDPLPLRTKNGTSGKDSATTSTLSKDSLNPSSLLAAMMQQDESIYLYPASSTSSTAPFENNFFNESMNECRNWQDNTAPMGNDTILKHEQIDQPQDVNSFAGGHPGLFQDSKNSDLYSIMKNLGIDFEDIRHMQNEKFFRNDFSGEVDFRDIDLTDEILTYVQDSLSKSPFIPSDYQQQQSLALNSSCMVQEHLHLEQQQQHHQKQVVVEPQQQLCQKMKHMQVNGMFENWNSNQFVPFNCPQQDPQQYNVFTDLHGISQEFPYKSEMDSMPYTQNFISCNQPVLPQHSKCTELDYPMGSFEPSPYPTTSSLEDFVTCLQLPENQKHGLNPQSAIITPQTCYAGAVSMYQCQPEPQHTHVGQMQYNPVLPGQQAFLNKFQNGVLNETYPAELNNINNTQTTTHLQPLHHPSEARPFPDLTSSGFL
From the text: In Vitro Assay 3: AhR Antagonism in Human Peripheral Blood Mononuclear Cells (PBMCs)-Inhibition of Interleukin-22 (IL-22) Release.
PBMCs were isolated from human peripheral blood using Lymphoprep™ and diluted to 1×10^6 cells per ml in RPMI media containing […] foetal bovine serum, 1% penicillin-streptomycin and 1% non essential amino acids. PBMCs were subsequently activated with 1p1 per 100,000 cells of a CD3/CD28 agonist mixture (human T Cell TransAct™ (Miltenyi Biotec)) and then plated at 100,000 cells per well in a round bottom 96 well tissue culture plate. One hour after stimulation seven concentrations of each test compound or vehicle (final [DMSO] 0.2%) were added. The plates were then placed in an incubator at 37° C., ≥85% humidity, 5% […] for 72 hrs before the media was removed and stored at −20° C. until cytokine analysis. IL-22 was measured using human IL-22 DuoSet ELISA (R&D systems) according to the manufacturer's instructions.

AhR [2] = target: T1, AhR; test: AhR antagonism in U937 cells (Promega P450-Glo assay); type: cell-based; parameters: endogenous in cells; host or cells: U937 cells; details: CYP1A1 activity readout (Luciferin-CEE), head names VAF347, average, read-out: U937 Antagonist pIC50-VAF347: av. pIC50 (converted)
Method: In Vitro Assay 1: AhR Antagonism in U937 Cells (Promega P450-Glo™ Assay)
AhR antagonism was assessed in LJ937 cells (myeloid lineage cell line derived from a human histiocytic lymphoma). Ligand binds the AhR in the cytoplasm, and the AhR-ligand complex translocates to the nucleus and forms a heterodimer with AhR nuclear translocator (Arnt). This complex binds the xenobiotic response element (XRE) in the 5′ upstream region of the CYP1A1 promoter, enhancing CYP1A1 expression. CYP1A1 activity is subsequently determined by assessing the conversion of Luciferin-CEE to luciferin, which in turn reacts with luciferase to produce light. The amount of light produced is directly proportional to cytochrome P450 activity. U937 cells in Ultraculture serum free media (Lonza) were plated at 100,000 cells per well in a round bottom 96 well tissue culture plate. […] The plates were then placed in an incubator at 37° C., ≥85% humidity, 5% CO2 for 24 hrs. After aspiration of the supernatant the CYP1A1 substrate Luciferin-CEE ([Final] 83 μM) was added and incubated for 3 hrs before the reaction was stopped by adding luciferin detection reagent and luminescence was read after 20 minutes.

| Structure (SMILES) | IC50 (AhR [1]) [nM] | IC50 (AhR [2]) [nM] |
| --- | --- | --- |
| COC[C@H]1COc2c(NCCc3c[nH]c4ccccc34)nc(-c3ccc[nH]c3=O)nc2N1 [Example 45, (S)-3-(4-((2-(1H-indol-3-yl)ethyl)amino)-7-(methoxymethyl)-7,8-dihydro-6H-pyrimido[5,4-b][1,4]oxazin-2-yl)pyridin-2(1H)-one] | < 1.02 | 3.8 |
| O=c1[nH]cc(F)cc1-c1nc2c(c(NCCc3c[nH]c4cc(F)ccc34)n1)OCCN2 [Example 70, 5-fluoro-3-(4-((2-(6-fluoro-1H-indol-3-yl)ethyl)amino)-7,8-dihydro-6H-pyrimido[5,4-b][1,4]oxazin-2-yl)pyridin-2 (1H)-one] | 0.646 | 1.58 |
| Cc1ncc(-c2nc3c(c(NC4CCc5[nH]c6cccnc6c5C4)n2)OCCN3)s1 (centres unmarked) [Example 34, 2-(2-methylthiazol-5-yl)-N-(6,7,8,9-tetrahydro-5H-pyrido[3,2-b]indol-8-yl)-7,8-dihydro-6H-pyrimido[5,4-b][1,4]oxazin-4-amine] | > 2000 | > 759 |
| Cn1cccc(-c2nc3c(c(NCCc4c[nH]c5ccccc45)n2)OCCN3)c1=O [Example 19, 3-[4-[2-(1H-indol-3-yl)ethylamino]-7,8-dihydro-6H-pyrimido[5,4-b][1,4]oxazin-2-yl]-1-methyl-pyridin-2-one] | 24.5 | 51.3 |
| CC1COc2c(NCCc3c[nH]c4ccccc34)nc(-c3cncc(F)c3)nc2N1 (centres unmarked) [Example 5, 2-(5-fluoro-3-pyridyl)-N-[2-(1H-indol-3-yl)ethyl]-7-methyl-7,8-dihydro-6H-pyrimido[5,4-b][1,4]oxazin-4-amine] | 0.955 | 1.86 |
| O=c1[nH]cc(F)cc1-c1nc2c(c(N[C@@H]3CCc4[nH]c5ccccc5c4C3)n1)OCCN2 [Example 71, (R)-5-fluoro-3-(4-((2,3,4,9-tetrahydro-1H-carbazol-3-yl)amino)-7,8-dihydro-6H-pyrimido[5,4-b][1,4]oxazin-2-yl)pyridin-2(1H)-one] | 69.2 | 126 |
| FC(F)Oc1ncccc1-c1nc2c(c(NCCc3c[nH]c4ccccc34)n1)OCCN2 [Example 22, 2-[2-(difluoromethoxy)-3-pyridyl]-N-[2-(1H-indol-3-yl)ethyl]-7,8-dihydro-6H-pyrimido[5,4-b][1,4]oxazin-4-amine] | > 2000 | 123 |
| C[C@H]1COc2c(NCCc3c[nH]c4ccccc34)nc(-c3cncc(F)c3)nc2N1 [Example 8, (7S)-2-(5-fluoro-3-pyridyl)-N-[2-(1H-indol-3-yl)ethyl]-7-methyl-7,8-dihydro-6H-pyrimido[5,4-b][1,4]oxazin-4-amine] | 1.05 | 1.12 |
| COC[C@@H]1COc2c(NCCc3c[nH]c4ccccc34)nc(-c3ccc(F)cc3)nc2N1 [Example 56, (7R)-2-(4-fluorophenyl)-N-[2-(1H-indol-3-yl)ethyl]-7-(methoxymethyl)-7,8-dihydro-6H-pyrimido[5,4-b][1,4]oxazin-4-amine] | 18.6 | 12 |
| c1ccc2c3c([nH]c2c1)CC[C@@H](Nc1nc(-c2nccs2)nc2c1OCCN2)C3 [Example 13, N-[(3R)-2,3,4,9-tetrahydro-1H-carbazol-3-yl]-2-thiazol-2-yl-7,8-dihydro-6H-pyrimido[5,4-b][1,4]oxazin-4-amine] | > 1780 | 229 |
| C[C@@H]1COc2c(NCCc3c[nH]c4ccccc34)nc(-c3cncc(F)c3)nc2N1 [Example 9, (7R)-2-(5-fluoro-3-pyridyl)-N-[2-(1H-indol-3-yl)ethyl]-7-methyl-7,8-dihydro-6H-pyrimido[5,4-b][1,4]oxazin-4-amine] | 0.661 | 0.513 |
| Cc1ncc(-c2nc3c(c(OCCc4c[nH]c5cc(F)ccc45)n2)OCCN3)s1 [Example 24, 4-[2-(6-fluoro-1H-indol-3-yl)ethoxy]-2-(2-methylthiazol-5-yl)-7,8-dihydro-6H-pyrimido[5,4-b][1,4]oxazine] | 2.88 | 2.63 |
| C[C@@H]1CNc2nc(-c3cncc(F)c3)nc(NCCc3c[nH]c4ccccc34)c2O1 [Example 30, (6R)-2-(5-fluoro-3-pyridyl)-N-[2-(1H-indol-3-yl)ethyl]-6-methyl-7,8-dihydro-6H-pyrimido[5,4-b][1,4]oxazin-4-amine] | 3.98 | 5.5 |

Results, then the molecule that gave them:

| IC50 (AhR [1]) [nM] | IC50 (AhR [2]) [nM] | Structure (SMILES) |
| --- | --- | --- |
| 7.41 | 4.27 | Cc1ncc(-c2nc(NCCc3c[nH]c4ccccc34)c3c(n2)N[C@H](CO)CO3)s1 [Example 60, [(7R)-4-[2-(1H-indol-3-yl)ethylamino]-2-(2-methylthiazol-5-yl)-7,8-dihydro-6H-pyrimido[5,4-b][1,4]oxazin-7-yl]methanol] |
| 145 | 61.7 | COc1ncccc1-c1nc2c(c(NCCc3c[nH]c4ccccc34)n1)OCCN2 [Example 64, N-[2-(1H-indol-3-yl)ethyl]-2-(2-methoxy-3-pyridyl)-7,8-dihydro-6H-pyrimido[5,4-b][1,4]oxazin-4-amine] |
| 9.55 | 9.12 | Cc1ncc(-c2nc3c(c(NCCc4c[nH]c5ccccc45)n2)OCCN3)s1 [Example 7, N-[2-(1H-indol-3-yl)ethyl]-2-(2-methylthiazol-5-yl)-7,8-dihydro-6H-pyrimido[5,4-b][1,4]oxazin-4-amine] |
| 1.35 | 7.76 | CC(C)N1CCOc2c(NCCc3c[nH]c4ccccc34)nc(-c3cncc(F)c3)nc21 [Example 6, 2-(5-fluoro-3-pyridyl)-N-[2-(1H-indol-3-yl)ethyl]-8-isopropyl-6,7-dihydropyrimido[5,4-b][1,4]oxazin-4-amine] |
| 141 | 89.1 | CCc1nc(C)c(-c2nc3c(c(NCCc4c[nH]c5ccccc45)n2)OCCN3)s1 [Example 12, 2-(2-ethyl-4-methyl-thiazol-5-yl)-N-[2-(1H-indol-3-yl)ethyl]-7,8-dihydro-6H-pyrimido[5,4-b][1,4]oxazin-4-amine] |
| 525 | 91.2 | Cc1ncc(-c2nc3c(c(N(CCO)CCc4c[nH]c5ccccc45)n2)OCCN3)s1 [Example 11, 2-[2-(1H-indol-3-yl)ethyl-[2-(2-methylthiazol-5-yl)-7,8-dihydro-6H-pyrimido[5,4-b][1,4]oxazin-4-yl]amino]ethanol] |
| 13.5 | 14.1 | Cc1ncc(-c2nc(NCCc3c[nH]c4ccccc34)c3c(n2)N(C2COC2)CCO3)s1 [Example 33, N-[2-(1H-indol-3-yl)ethyl]-2-(2-methylthiazol-5-yl)-8-(oxetan-3-yl)-6,7-dihydropyrimido[5,4-b][1,4]oxazin-4-amine] |
| 3.24 | 3.8 | COC[C@@H]1COc2c(NCCc3c[nH]c4ccccc34)nc(-c3cnc(C)s3)nc2N1 [Example 59, (7R)—N-[2-(1H-indol-3-yl)ethyl]-7-(methoxymethyl)-2-(2-methylthiazol-5-yl)-7,8-dihydro-6H-pyrimido[5,4-b][1,4]oxazin-4-amine] |
| 1.91 | 0.724 | Fc1cncc(-c2nc3c(c(NCCc4c[nH]c5ccccc45)n2)OCCN3)c1 [Example 1, 2-(5-fluoro-3-pyridyl)-N-[2-(1H-indol-3-yl)ethyl]-7,8-dihydro-6H-pyrimido[5,4-b][1,4]oxazin-4-amine] |
